The text below walks through data of patent US20150224164A1, “TREATMENT OF AUTISM SPECTRUM DISORDERS USING GLYCYL-L-2-METHYLPROLYL-L-GLUMATIC ACID” (Neuren Pharmaceuticals Limited, priority 2013, published 2015).

Structures are written as SMILES. Entries after “also recorded” stand apart in the source; their conditions may differ. Where a SMILES comes first, the peptide text is derived from it.

The subject of data set [1] is subjects with an Autism Spectrum Disorder. The experiment in a line: Placebo-controlled crossover study in subjects with Autism Spectrum Disorder (Example 16). Type of data set: in vivo, human. The text has this: To determine whether G-2-MePE can treat symptoms of ASD, we carry out a study in human beings with ASD. Twenty subjects with an Autism Spectrum Disorder are recruited. Subjects are male and aged between 16 and 65 years (Mean=18.1 SD=3.4). All subjects have an IQ>60 and strict DSM-IV-TR diagnosis of Autistic Disorder or Asperger Disorder. Subjects also meet criteria for an Autism Spectrum Disorder according the ADI-R and ADOS-G instruments, and fulfill the proposed DSM-V criteria for and Autism Spectrum Disorder. Subjects are instructed that concomitant medications are to be stable for at least six weeks prior to study. Subjects receiving medication to treat signs of inattention are tested in the morning and instructed to take their medication in the afternoon. Subjects better treated with atypical anti-psychotic medications indicated for autism are excluded. Subjects are screened for known genetic disorders including and those with Fragile X Syndrome or tuberous sclerosis excluded. Subjects with uncontrolled epilepsy are excluded. The study is a double blind placebo-controlled crossover study with three phases. Subjects enter each phase of the crossover in a randomized order. In the test phases, subjects receive either placebo, 10 mg/kg T.I.D oral G-2-MePE for five days, or 30 mg/kg T.I.D. oral G-2-MePE. Each phase of the crossover is separated by a washout period of fourteen days. Subjects are tested at baseline using the following instruments: Wechsler IQ, Abberant Behavior Checklist Community Edition (ABC), […], Yale-Brown Obsessive Compulsive Scale (YBOCS) compulsion subscale, Social Responsiveness Scale (SRS), Clinical Global Impression of Severity (CGI-S) and their […] complete the Caregiver Strain Questionnaire (CSQ). Subjects are administered two tasks-the Reading the Mind in the Eyes Test-Revised (RMET) and an Eye Tracking (ET) task, as well as Clinical Global Impression of Improvement (CGI-I). Tasks commence two hours following administration of placebo or either dose of G-2-MePE. The RMET is a computer based task that assesses one's ability to read emotions from the eyes of subtle affective facial expressions and is a widely used test of emotion recognition in patients with autism (2001). Importantly, the RMET is capable of detecting improvement with even a single dose of a pharmacological agent (Guastella et al., 2010). Eye tracking issues are characteristic of patients with autism who spend less time looking at the eyes of photographs of human faces. Again, a single administration of a pharmacologic intervention can ameliorate eye tracking deficits in autism ([…] et al, 2010). Adverse events are also recorded using standard safety measures. Statistically, the effect of treatment with G-2-MePE is analysed by conducting a repeated analysis of covariance (ANCOVA) on the effect of treatment on change from baseline scores.

For the next data set, the system named is 17 month old rats. The experiment in a line: 8-arm radial maze, spatial working memory. Type of data set: in vivo, rat. Conditions: for WCC8-12 score, improvement across days: 9-day washout. The text has this:
The apparatus consists of a central platform communicating with 8 identical arms, each with a food cup at the end of the arm Rats were partially food-deprived for at least 10 days prior to, and throughout the radial maze procedure. The maze was assembled and positioned so that the experimenter could clearly observe the rats' behavior from a predetermined location. The experimenter numbered the arms of the maze according to their orientation from one to eight in a clock-wise direction. On day one the doors were inserted into the arms and each rat was confined in the central platform with 20 food pellets for 5 minutes. […] The following day the rats were allowed five minutes to explore the whole maze. All arms were baited with two food pellets in the food cup located at the end of each arm, and one pellet at both the entrance and middle of each arm. This was repeated for at least five, but up to eight days for rats that explored fewer than eight arms in two consecutive sessions. […] At this point it was decided that one of the old rats that had made only one arm entry on eight of the nine days should be excluded from future testing in this procedure. Otherwise all rats were included regardless of the amount of exploring they performed in pre-training. […] 30 days before the test (five days after pre-training) the 17 Male Wistar month old rats were implanted (under halothane anesthesia) with sub-cutaneous mini-osmotic pumps (Alzet) to dispense drug continuously for 3 weeks. At the completion of the infusion the pumps were removed and the wounds re-sutured (9-day washout allowed). The treatment groups were: • 1. young controls (4 months old), n=6; • 2. saline n=10; • 3. G-2-MePE low dose (2.4 mg/kg/day) n=13 • 4. G-2-MePE high dose (12.4 mg/kg/day) n=5 Working memory testing commenced on the ninth day of washout. Rats received 10 daily training sessions over 12 days. […] The experimenter recorded the sequence of arm entries with pen and paper. […] The time taken to enter all eight arms, when this occurred, was recorded. […]

For the compound `C[C@@]1(C(=O)N[C@@H](CCC(=O)O)C(=O)O)CCCN1C(=O)CN` [Example G-2-MePE, Glycyl-L-2-methylprolyl-L-glutamic acid] (HELM PEPTIDE1{G.[C[C@@]1(C(=O)[*:2])CCCN1[*:1]].E}$$$$V2.0), the “percent correct responses on the RMET” value in data set [1] (30 mg/kg T.I.D. oral) is “increases the percent correct responses”. Further, in data set [1] (10 or 30 mg/kg T.I.D. oral), the “Serious Adverse Events” value was “No Serious Adverse Events” and the “adverse events / tolerability” value is given as “no more adverse events than were present during treatment with placebo; also recorded: well tolerated”. Besides, in data set [1] (human, in vivo), the “performance of the RMET test, overall” value is recorded as “significant overall improvement” and the “time spent looking at the eye region in the ET test” value is given as “significant overall improvement”. In addition, in the data set with 17 month old rats (high dose 12.4 mg/kg/day s.c. pump 3 weeks), the “WCC8-12 score, improvement across days” value is listed as “showed the greatest improvement across days”. Also, the “correct maze choices averaged across days” value in the data set with 17 month old rats (higher dose vs vehicle, p<0.05) was “more correct entries”. The “WCC8-12 score, improvement across days” value in the data set with 17 month old rats (low dose 2.4 mg/kg/day s.c. pump 3 weeks) is “very little difference”.
